Test: xn = mol fraction of the nth substance listed
Conditions: 101 kPa, Liquid, Buoyancy - hydrostatic balance with magnetic suspension - one sinker

CN(C)P(=O)(N(C)C)N(C)C [tris(dimethylamino)phosphine oxide] + O
mass density [kg/m3]
Conditions | 288.15 K | 293.15 K | 298.15 K | 303.15 K | 308.15 K
x1 = 0.0023 | 1001.1 | 1000.05 | 998.77 | 997.25 | 995.51
x1 = 0.00503 | 1003.51 | 1002.29 | 1000.85 | 999.27 | 997.34
x1 = 0.0101 | 1007.82 | 1006.2 | 1004.52 | 1002.76 | 1000.79
x1 = 0.0297 | 1024.31 | 1021.59 | 1018.84 | 1016.02 | 1013.39
x1 = 0.05 | 1036.43 | 1033.08 | 1029.72 | 1026.56 | 1023.13
x1 = 0.07 | 1043.92 | 1040.44 | 1036.96 | 1033.47 | 1029.7
x1 = 0.1 | 1050.24 | 1046.86 | 1042.73 | 1039 | 1034.91
x1 = 0.1496 | 1054.84 | 1050.62 | 1046.2 | 1041.95 | 1037.57
x1 = 0.1999 | 1054.7 | 1050.33 | 1045.83 | 1041.49 | 1037.05
x1 = 0.3008 | 1049.56 | 1045 | 1040.47 | 1036.04 | 1031.66
x1 = 0.3999 | 1044.61 | 1040.34 | 1035.76 | 1031.36 | 1026.94
x1 = 0.5002 | 1040.86 | 1036.54 | 1032.12 | 1027.81 | 1023.35
x1 = 0.6 | 1038.03 | 1033.74 | 1029.39 | 1025.15 | 1020.66
x1 = 0.6997 | 1035.45 | 1031.15 | 1026.79 | 1022.51 | 1018
x1 = 0.8004 | 1033.06 | 1028.72 | 1024.37 | 1020.03 | 1015.57
x1 = 0.8505 | 1031.95 | 1027.66 | 1023.31 | 1019.05 | 1014.64
x1 = 0.91 | 1030.54 | 1026.29 | 1021.95 | 1017.74 | 1013.41
x1 = 0.9499 | 1029.63 | 1025.4 | 1021.07 | 1016.88 | 1012.59
x1 = 0.9703 | 1029.16 | 1024.92 | 1020.61 | 1016.44 | 1012.14
x1 = 0.9849 | 1028.81 | 1024.6 | 1020.3 | 1016.12 | 1011.86
x1 = 0.9937 | 1028.61 | 1024.4 | 1020.1 | 1015.93 | 1011.68
x1 = 0.9967 | 1028.54 | 1024.33 | 1020.03 | 1015.86 | 1011.61
x1 = 1 | 1028.47 | 1024.26 | 1019.96 | 1015.79 | 1011.54
